Laboratory results published in article PMC10924921, “Mi-2β promotes immune evasion in melanoma by activating EZH2 methylation” (Nature Communications, 2024).

Experiments:
Assay in all cases: biochemical
Set-up in all cases: KINOMEscan active-site competition binding panel (468 kinase assays), per cent of control at 1000 nM
Details in all cases: KINOMEscan per cent of control (binding competition); read-out: Percent Control
MAP4K5 = MAP4K5 (Homo sapiens, UniProt Q9Y4K4)
Text: (§1) Figure S7 / Percent Control

INSR = INSR (Homo sapiens, UniProt P06213)
Text: as §1

PKN1 = PKN1 (Homo sapiens, UniProt Q16512)
Text: as §1

MRCKB = target: T1, MRCKB (Homo sapiens, UniProt Q9Y5S2)
T1 construct: gene CDC42BPB
Text: as §1

[1] = target: T2, RSK4(Kin.Dom.2-C-terminal) (Homo sapiens, UniProt Q9UK32)
T2 construct: gene RPS6KA6; Kin.Dom.2-C-terminal
Text: as §1

BMX = BMX (Homo sapiens, UniProt P51813)
Text: as §1

WNK3 = WNK3 (Homo sapiens, UniProt Q9BYP7)
Text: as §1

PDGFRA = PDGFRA (Homo sapiens, UniProt P16234)
Text: as §1

AKT2 = AKT2 (Homo sapiens, UniProt P31751)
Text: as §1

CSNK1A1 = CSNK1A1 (Homo sapiens, UniProt P48729)
Text: as §1

TRPM6 = TRPM6 (Homo sapiens, UniProt Q9BX84)
Text: as §1

FLT3 = FLT3 (Homo sapiens, UniProt P36888)
Text: as §1

FES = FES (Homo sapiens, UniProt P07332)
Text: as §1

FLT4 = FLT4 (Homo sapiens, UniProt P35916)
Text: as §1

EPHA3 = EPHA3 (Homo sapiens, UniProt P29320)
Text: as §1

PIK3CA(E545K) = PIK3CA(E545K) (Homo sapiens, UniProt P42336, E545K)
Text: as §1

ABL1-nonphosphorylated = target: T3, ABL1-nonphosphorylated (Homo sapiens, UniProt P00519)
T3 construct: nonphosphorylated
Text: as §1

TESK1 = TESK1 (Homo sapiens, UniProt Q15569)
Text: as §1

BIKE = target: T4, BIKE (Homo sapiens, UniProt Q9NSY1)
T4 construct: gene BMP2K
Text: as §1

ABL2 = ABL2 (Homo sapiens, UniProt P42684)
Text: as §1

BRK = target: T5, BRK (Homo sapiens, UniProt Q13882)
T5 construct: gene PTK6
Text: as §1

RIOK1 = RIOK1 (Homo sapiens, UniProt Q9BRS2)
Text: as §1

AURKA = AURKA (Homo sapiens, UniProt O14965)
Text: as §1

LRRK2 = LRRK2 (Homo sapiens, UniProt Q5S007)
Text: as §1

PKN2 = PKN2 (Homo sapiens, UniProt Q16513)
Text: as §1

T4 sequence (Q9NSY1 whole entry): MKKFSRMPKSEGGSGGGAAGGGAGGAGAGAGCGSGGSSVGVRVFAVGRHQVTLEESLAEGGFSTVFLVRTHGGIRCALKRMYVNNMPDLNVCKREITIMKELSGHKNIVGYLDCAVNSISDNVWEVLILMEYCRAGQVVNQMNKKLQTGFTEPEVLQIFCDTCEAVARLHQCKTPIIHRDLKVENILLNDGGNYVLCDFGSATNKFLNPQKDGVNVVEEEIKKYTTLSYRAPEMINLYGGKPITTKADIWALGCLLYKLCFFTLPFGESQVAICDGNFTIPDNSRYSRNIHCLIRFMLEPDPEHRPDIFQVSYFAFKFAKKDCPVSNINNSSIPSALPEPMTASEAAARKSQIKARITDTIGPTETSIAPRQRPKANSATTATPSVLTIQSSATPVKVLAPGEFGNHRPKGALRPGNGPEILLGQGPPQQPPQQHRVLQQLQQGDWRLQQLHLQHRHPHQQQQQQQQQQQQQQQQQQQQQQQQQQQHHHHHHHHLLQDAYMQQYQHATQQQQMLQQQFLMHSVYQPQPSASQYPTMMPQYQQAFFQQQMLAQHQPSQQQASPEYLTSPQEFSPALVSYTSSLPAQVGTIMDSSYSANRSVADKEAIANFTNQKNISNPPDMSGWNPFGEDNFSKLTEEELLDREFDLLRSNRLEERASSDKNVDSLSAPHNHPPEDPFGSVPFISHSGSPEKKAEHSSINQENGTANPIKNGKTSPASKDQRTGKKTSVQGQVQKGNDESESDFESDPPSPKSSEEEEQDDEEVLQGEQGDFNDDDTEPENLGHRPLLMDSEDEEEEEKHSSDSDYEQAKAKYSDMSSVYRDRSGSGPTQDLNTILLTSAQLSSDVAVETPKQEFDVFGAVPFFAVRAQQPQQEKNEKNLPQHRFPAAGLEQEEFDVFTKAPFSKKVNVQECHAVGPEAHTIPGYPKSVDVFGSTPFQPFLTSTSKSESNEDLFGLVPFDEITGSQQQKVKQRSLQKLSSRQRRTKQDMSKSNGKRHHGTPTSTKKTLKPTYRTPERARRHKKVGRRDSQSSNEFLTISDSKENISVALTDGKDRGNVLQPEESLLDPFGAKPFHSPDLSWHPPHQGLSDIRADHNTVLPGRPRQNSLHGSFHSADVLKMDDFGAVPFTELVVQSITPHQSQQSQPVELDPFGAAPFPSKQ
T3 sequence (P00519 whole entry): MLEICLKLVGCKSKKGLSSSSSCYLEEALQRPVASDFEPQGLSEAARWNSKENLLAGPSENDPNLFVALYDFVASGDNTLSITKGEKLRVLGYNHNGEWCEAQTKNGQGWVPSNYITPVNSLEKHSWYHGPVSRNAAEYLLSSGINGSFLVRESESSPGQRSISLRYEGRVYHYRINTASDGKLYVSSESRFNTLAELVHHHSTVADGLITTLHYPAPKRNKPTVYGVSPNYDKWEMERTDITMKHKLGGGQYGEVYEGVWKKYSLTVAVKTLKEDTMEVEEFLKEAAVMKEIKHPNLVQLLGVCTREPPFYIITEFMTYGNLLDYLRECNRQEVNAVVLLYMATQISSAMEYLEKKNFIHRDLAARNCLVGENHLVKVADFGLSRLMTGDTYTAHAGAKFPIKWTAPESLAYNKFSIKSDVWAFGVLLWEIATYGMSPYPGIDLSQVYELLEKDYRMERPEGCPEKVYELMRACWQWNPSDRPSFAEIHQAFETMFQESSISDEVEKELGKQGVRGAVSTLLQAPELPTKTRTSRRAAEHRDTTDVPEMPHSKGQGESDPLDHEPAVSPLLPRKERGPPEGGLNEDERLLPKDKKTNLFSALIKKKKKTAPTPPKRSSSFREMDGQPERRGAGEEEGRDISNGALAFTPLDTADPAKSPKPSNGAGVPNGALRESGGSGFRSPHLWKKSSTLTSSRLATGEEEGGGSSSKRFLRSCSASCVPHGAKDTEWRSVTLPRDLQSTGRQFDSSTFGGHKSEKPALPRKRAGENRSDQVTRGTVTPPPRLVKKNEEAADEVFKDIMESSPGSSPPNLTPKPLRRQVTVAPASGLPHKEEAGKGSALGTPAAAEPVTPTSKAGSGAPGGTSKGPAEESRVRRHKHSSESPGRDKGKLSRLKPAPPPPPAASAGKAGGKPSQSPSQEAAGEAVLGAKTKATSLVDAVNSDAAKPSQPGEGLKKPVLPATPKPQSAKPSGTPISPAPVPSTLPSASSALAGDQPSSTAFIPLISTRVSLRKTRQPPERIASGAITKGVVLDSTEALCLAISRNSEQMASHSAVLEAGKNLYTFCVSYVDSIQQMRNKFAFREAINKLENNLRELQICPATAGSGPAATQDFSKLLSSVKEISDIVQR
T1 sequence (Q9Y5S2 whole entry): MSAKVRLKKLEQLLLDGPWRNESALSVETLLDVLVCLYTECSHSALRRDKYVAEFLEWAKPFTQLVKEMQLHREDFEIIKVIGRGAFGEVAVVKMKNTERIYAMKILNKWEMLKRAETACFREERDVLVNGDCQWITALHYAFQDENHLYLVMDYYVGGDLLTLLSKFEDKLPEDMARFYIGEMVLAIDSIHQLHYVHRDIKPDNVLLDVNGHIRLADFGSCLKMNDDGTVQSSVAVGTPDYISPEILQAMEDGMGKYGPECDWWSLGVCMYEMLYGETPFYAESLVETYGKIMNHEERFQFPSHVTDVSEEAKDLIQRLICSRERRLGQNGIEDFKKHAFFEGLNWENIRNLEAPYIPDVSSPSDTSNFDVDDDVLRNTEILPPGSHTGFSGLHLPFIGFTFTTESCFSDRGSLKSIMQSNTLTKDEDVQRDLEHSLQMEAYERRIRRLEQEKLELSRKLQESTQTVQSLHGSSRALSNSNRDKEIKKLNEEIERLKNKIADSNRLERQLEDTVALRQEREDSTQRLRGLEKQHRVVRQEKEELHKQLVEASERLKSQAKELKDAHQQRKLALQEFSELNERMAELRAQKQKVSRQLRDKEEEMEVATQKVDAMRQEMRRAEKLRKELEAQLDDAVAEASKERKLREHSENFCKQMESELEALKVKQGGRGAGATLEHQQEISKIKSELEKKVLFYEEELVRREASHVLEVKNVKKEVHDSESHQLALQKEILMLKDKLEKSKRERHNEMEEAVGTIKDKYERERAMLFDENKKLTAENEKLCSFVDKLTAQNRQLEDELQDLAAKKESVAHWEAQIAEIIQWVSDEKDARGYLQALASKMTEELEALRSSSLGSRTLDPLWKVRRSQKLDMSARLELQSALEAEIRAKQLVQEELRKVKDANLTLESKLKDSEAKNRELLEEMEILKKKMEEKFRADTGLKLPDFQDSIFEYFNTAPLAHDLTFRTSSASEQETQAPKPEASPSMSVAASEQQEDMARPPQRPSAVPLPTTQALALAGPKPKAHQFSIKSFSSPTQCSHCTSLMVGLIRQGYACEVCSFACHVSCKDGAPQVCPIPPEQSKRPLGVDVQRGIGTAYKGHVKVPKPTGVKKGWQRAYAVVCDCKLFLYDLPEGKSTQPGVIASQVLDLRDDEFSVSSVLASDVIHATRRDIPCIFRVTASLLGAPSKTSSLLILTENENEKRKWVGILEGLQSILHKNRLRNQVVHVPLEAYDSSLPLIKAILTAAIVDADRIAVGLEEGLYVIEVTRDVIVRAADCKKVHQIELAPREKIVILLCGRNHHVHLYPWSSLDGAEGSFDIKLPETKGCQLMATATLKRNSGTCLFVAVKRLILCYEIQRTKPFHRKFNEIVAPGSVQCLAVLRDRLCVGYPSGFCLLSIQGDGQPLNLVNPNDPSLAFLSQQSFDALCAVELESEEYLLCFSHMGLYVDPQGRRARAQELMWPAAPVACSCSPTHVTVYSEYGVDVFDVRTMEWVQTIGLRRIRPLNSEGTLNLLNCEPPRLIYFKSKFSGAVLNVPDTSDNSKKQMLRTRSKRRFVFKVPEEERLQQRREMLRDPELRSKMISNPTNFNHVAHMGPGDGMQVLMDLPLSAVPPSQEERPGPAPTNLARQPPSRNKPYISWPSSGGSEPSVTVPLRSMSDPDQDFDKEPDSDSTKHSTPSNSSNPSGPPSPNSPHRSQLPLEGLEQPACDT
CSNK1A1, sequence (P48729 whole entry): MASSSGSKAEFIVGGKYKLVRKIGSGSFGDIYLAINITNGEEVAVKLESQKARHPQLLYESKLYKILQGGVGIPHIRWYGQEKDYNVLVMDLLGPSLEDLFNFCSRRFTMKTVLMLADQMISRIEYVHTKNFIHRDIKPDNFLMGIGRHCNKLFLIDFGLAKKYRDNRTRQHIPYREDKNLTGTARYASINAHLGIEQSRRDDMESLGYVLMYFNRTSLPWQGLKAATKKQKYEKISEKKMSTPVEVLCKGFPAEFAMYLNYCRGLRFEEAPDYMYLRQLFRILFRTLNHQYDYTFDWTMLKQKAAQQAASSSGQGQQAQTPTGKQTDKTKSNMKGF
RIOK1, sequence (Q9BRS2 whole entry): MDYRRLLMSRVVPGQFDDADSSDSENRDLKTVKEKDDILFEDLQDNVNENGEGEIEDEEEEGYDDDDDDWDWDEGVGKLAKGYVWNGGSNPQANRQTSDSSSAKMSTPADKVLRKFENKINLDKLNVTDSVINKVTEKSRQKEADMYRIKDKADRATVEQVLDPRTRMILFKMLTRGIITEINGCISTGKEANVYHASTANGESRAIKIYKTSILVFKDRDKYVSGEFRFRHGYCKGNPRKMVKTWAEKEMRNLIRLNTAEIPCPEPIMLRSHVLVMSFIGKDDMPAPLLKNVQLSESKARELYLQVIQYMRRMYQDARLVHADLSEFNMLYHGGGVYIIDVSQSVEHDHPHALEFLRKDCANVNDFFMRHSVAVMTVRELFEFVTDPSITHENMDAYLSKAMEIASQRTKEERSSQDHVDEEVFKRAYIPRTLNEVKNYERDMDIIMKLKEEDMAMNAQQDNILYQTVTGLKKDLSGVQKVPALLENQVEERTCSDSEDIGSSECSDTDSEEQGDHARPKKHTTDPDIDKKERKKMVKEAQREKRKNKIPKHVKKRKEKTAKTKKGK

Q: Which results are given for Cn1c(=O)[nH]c2ccc(-c3cccc(C(=O)NC4CCn5ccnc5C4)c3)cc21 (stereo not shown) [Z36-MP5]?
A: remaining binding at 1 µM (MAP4K5): 39%; remaining binding at 1 µM (INSR): 57%; remaining binding at 1 µM (PKN1): 99%; remaining binding at 1 µM (MRCKB): 92%; remaining binding at 1 µM [1]: 82%; remaining binding at 1 µM (BMX): 100%; remaining binding at 1 µM (WNK3): 69%; remaining binding at 1 µM (PDGFRA): 75%; remaining binding at 1 µM (AKT2): 89%; remaining binding at 1 µM (CSNK1A1): 74%; remaining binding at 1 µM (TRPM6): 90%; remaining binding at 1 µM (FLT3): 95%; remaining binding at 1 µM (FES): 73%; remaining binding at 1 µM (FLT4): 80%; remaining binding at 1 µM (EPHA3): 93%; remaining binding at 1 µM (PIK3CA(E545K)): 48%; remaining binding at 1 µM (ABL1-nonphosphorylated): 91%; remaining binding at 1 µM (TESK1): 100%; remaining binding at 1 µM (BIKE): 100%; remaining binding at 1 µM (ABL2): 98%; remaining binding at 1 µM (BRK): 100%; remaining binding at 1 µM (RIOK1): 47%; remaining binding at 1 µM (AURKA): 56%; remaining binding at 1 µM (LRRK2): 71%; remaining binding at 1 µM (PKN2): 98%
